Measurements as given in ChEMBL document CHEMBL2412974, “Dimeric and trimeric triazole based molecules as a new class of Hsp90 molecular chaperone inhibitors” (Eur J Med Chem, 2013).
Activity calls are given as the source filed them. The calls are words filed in the database; no cut-off is given here.

Assays:
[1] = biological target: T1, Heat shock protein HSP 90-beta (Homo sapiens, UniProt P08238); test: Binding affinity to human Hsp90 by surface plasmon resonance analysis
[2] = biological target: T1, Heat shock protein HSP 90-beta; test: Inhibition of human Hsp90 chaperone activity assessed as citrate synthase thermal-induced aggregation at 0.3 uM by fluorimetric analysis
[3] = biological target: T1, Heat shock protein HSP 90-beta; test: Inhibition of human Hsp90 ATPase activity assessed as inhibition of ATP hydrolysis after 60 mins by fluorimetric analysis

T1 sequence (P08238 whole entry): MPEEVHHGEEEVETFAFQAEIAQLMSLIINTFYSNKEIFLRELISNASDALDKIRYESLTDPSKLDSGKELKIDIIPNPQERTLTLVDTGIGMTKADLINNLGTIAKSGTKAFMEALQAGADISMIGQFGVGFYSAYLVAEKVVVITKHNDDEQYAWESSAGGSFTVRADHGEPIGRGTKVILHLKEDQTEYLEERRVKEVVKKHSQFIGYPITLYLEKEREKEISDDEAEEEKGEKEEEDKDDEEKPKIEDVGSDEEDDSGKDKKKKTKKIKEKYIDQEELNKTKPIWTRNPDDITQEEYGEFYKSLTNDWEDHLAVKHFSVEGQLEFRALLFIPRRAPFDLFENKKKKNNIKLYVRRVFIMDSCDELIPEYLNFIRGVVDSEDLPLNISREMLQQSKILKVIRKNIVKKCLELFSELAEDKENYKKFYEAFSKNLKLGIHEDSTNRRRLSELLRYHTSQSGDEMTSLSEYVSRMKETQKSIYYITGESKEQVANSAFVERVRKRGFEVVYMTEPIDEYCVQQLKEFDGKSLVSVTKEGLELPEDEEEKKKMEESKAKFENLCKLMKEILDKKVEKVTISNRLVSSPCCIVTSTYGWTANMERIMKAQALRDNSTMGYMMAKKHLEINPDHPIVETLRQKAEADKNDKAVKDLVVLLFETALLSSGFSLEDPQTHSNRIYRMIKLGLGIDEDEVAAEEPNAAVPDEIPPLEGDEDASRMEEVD

| SMILES | Kd [1] | Kd ([1]; read-out: Kd) [µM] | further results |
| --- | --- | --- | --- |
| O=C1c2ccccc2C(=O)N1CCCn1cc(CN(Cc2cn(CCCN3C(=O)c4ccccc4C3=O)nn2)Cc2cn(CCCN3C(=O)c4ccccc4C3=O)nn2)nn1 | – | 0.089 | – |
| c1ccc2c(Cn3cc(-c4ccc(-c5cn(Cc6cccc7ccccc67)nn5)cc4)nn3)cccc2c1 | Not Active | – | – |
| O=C1c2ccccc2C(=O)c2cc(Cn3cc(CN(Cc4cn(Cc5ccc6c(c5)C(=O)c5ccccc5C6=O)nn4)Cc4cn(Cc5ccc6c(c5)C(=O)c5ccccc5C6=O)nn4)nn3)ccc21 | – | 0.107 | – |
| O=C1c2ccccc2C(=O)N1CCCn1cc(-c2ccc(-c3cn(CCCN4C(=O)c5ccccc5C4=O)nn3)cc2)nn1 | Not Active | – | – |
| c1ccc2c(Cn3cc(CN(Cc4cn(Cc5cccc6ccccc56)nn4)Cc4cn(Cc5cccc6ccccc56)nn4)nn3)cccc2c1 | – | 0.201 | – |
| O=C1c2ccccc2C(=O)c2cc(Cn3cc(-c4ccc(-c5cn(Cc6ccc7c(c6)C(=O)c6ccccc6C7=O)nn5)cc4)nn3)ccc21 | Not Active | – | – |
| c1ccc2c(Cn3cc(CCCCc4cn(Cc5cccc6ccccc56)nn4)nn3)cccc2c1 | – | 0.191 | – |
| O=C1c2ccccc2C(=O)N1CCCn1cc(COCc2cn(CCCN3C(=O)c4ccccc4C3=O)nn2)nn1 | – | 0.0035 | inhibition [2]: Active; IC50 [3]: 7 µM; inhibition [3]: Dose-dependent effect |
| O=C1c2ccccc2C(=O)c2cc(Cn3cc(CCCCc4cn(Cc5ccc6c(c5)C(=O)c5ccccc5C6=O)nn4)nn3)ccc21 | Not Active | – | – |
| c1ccc(-c2ccc(Cn3cc(CN(Cc4cn(Cc5ccc(-c6ccccc6)cc5)nn4)Cc4cn(Cc5ccc(-c6ccccc6)cc5)nn4)nn3)cc2)cc1 | – | 0.072 | – |
| O=C1c2ccccc2C(=O)N1CCCn1cc(CCCCc2cn(CCCN3C(=O)c4ccccc4C3=O)nn2)nn1 | Not Active | – | – |
| c1ccc2cc(Cn3cc(CN(Cc4cn(Cc5ccc6ccccc6c5)nn4)Cc4cn(Cc5ccc6ccccc6c5)nn4)nn3)ccc2c1 | – | 0.055 | inhibition [2]: Active; IC50 [3]: 16 µM; inhibition [3]: Dose-dependent effect |

Continued, in another order:

| Kd [1] | Kd ([1]; read-out: Kd) [µM] | SMILES | further results |
| --- | --- | --- | --- |
| Not Active | – | c1ccc(-c2ccc(Cn3cc(CCCCc4cn(Cc5ccc(-c6ccccc6)cc5)nn4)nn3)cc2)cc1 | – |
| Not Active | – | c1ccc2cc(Cn3cc(COCc4cn(Cc5ccc6ccccc6c5)nn4)nn3)ccc2c1 | – |
| – | 0.151 | O=C(c1ccccc1)c1ccc(Cn2cc(CN(Cc3cn(Cc4ccc(C(=O)c5ccccc5)cc4)nn3)Cc3cn(Cc4ccc(C(=O)c5ccccc5)cc4)nn3)nn2)cc1 | – |
| Not Active | – | c1ccc2cc(Cn3cc(-c4ccc(-c5cn(Cc6ccc7ccccc7c6)nn5)cc4)nn3)ccc2c1 | – |
| – | 0.0103 | c1ccc2c(Cn3cc(COCc4cn(Cc5cccc6ccccc56)nn4)nn3)cccc2c1 | – |
| – | 0.0028 | O=C1c2ccccc2C(=O)c2cc(Cn3cc(COCc4cn(Cc5ccc6c(c5)C(=O)c5ccccc5C6=O)nn4)nn3)ccc21 | inhibition [2]: Active; IC50 [3]: 7 µM; inhibition [3]: Dose-dependent effect |
| – | 0.0036 | O=C(c1ccccc1)c1ccc(Cn2cc(COCc3cn(Cc4ccc(C(=O)c5ccccc5)cc4)nn3)nn2)cc1 | inhibition [2]: Active; IC50 [3]: 7 µM; inhibition [3]: Dose-dependent effect |
| Not Active | – | c1ccc(-c2ccc(Cn3cc(-c4ccc(-c5cn(Cc6ccc(-c7ccccc7)cc6)nn5)cc4)nn3)cc2)cc1 | – |
| – | 0.237 | c1ccc(-c2ccc(Cn3cc(COCc4cn(Cc5ccc(-c6ccccc6)cc5)nn4)nn3)cc2)cc1 | – |
| – | 0.084 | c1ccc2cc(Cn3cc(CCCCc4cn(Cc5ccc6ccccc6c5)nn4)nn3)ccc2c1 | inhibition [2]: Active; IC50 [3]: 52 µM; inhibition [3]: Dose-dependent effect |
| Not Active | – | O=C(c1ccccc1)c1ccc(Cn2cc(CCCCc3cn(Cc4ccc(C(=O)c5ccccc5)cc4)nn3)nn2)cc1 | – |
| Not Active | – | O=C(c1ccccc1)c1ccc(Cn2cc(-c3ccc(-c4cn(Cc5ccc(C(=O)c6ccccc6)cc5)nn4)cc3)nn2)cc1 | – |
